The results in this text go back to patent US5391540A, “Substituted pyridine compounds” (Rohm and Haas Company, priority 1993, dated 1995).

Common to all, as to test: Pre-emergent herbicidal activity (Table A)
What all share (assay type): in vivo

In test [1] the test system is Barnyardgrass. The following applies: Echinochloa crus-galli, pre-emergence, Bygr, 11.2 kg/ha, 10-14 days, read-out: herbicidal rating (% inhibition). Summed up: (§1)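 Seeds or perennial propagules set on compacted topsoil, then covered with soil mixed with a known amount of test compound applied in acetone or water carrier. Ratings assigned on a scale based on percent inhibition of each species.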

Test [2] relates to Canada thistle. The following applies: Cirsium arvense, pre-emergence, Cath, 11.2 kg/ha, 10-14 days, read-out: herbicidal rating (% inhibition). Summed up: as §1
Test [3] concerns Cocklebur. The conditions noted are these: Xanthium strumarium, pre-emergence, Cobu, 11.2 kg/ha, 10-14 days, read-out: herbicidal rating (% inhibition). In outline: as §1
Test [4] concerns Common Lambsquarters. The following applies: Chenopodium album, pre-emergence, Colq, 11.2 kg/ha, 10-14 days, read-out: herbicidal rating (% inhibition). Summed up: as §1
Test [5] has as its system Downy Brome. The conditions noted are these: Bromus tectorum, pre-emergence, Dobr, 11.2 kg/ha, 10-14 days, read-out: herbicidal rating (% inhibition). Summed up: as §1
For test [6], the system named is Morningglory. The conditions noted are these: Ipomoea, pre-emergence, Mogl, 11.2 kg/ha, 10-14 days, read-out: herbicidal rating (% inhibition). Summed up:
as §1

Test [7] has as its system Pennsylvania Smartweed. The conditions noted are these: pre-emergence, Pesw, 11.2 kg/ha, 10-14 days, read-out: herbicidal rating (% inhibition). Summed up:
as §1

Test [8] concerns Quackgrass. The conditions noted are these: pre-emergence, Rhqg, 11.2 kg/ha, 10-14 days, read-out: herbicidal rating (% inhibition). Summed up: as §1
In test [9] the test system is Rhizome Johnsongrass. The following applies: Sorghum halepense, pre-emergence, Rhjg, 11.2 kg/ha, 10-14 days, read-out: herbicidal rating (% inhibition). In outline: as §1
In test [10] the test system is Velvetleaf. The following applies: Abutilon theophrasti, pre-emergence, Vele, 11.2 kg/ha, 10-14 days, read-out: herbicidal rating (% inhibition). In outline: as §1
Test [11] has as its system Yellow Nutsedge. The following applies: Cyperus, pre-emergence, Yens, 11.2 kg/ha, 10-14 days, read-out: herbicidal rating (% inhibition). In outline:
as §1

A word on the inhibition: it is the drop in the measured response relative to a control, in per cent. As for `COC(=O)c1c(OC)nc(C(F)(F)F)c(C(=O)OC)c1CC1CC1` [Compound 92, 3,5-pyridinedicarboxylic acid, 4-(cyclopropylmethyl)-2-methoxy-6-(trifluoromethyl)-, dimethyl ester], the inhibition at 11200 g/ha was in the range of 75 to 100% in test [1]; 75 to 100% in test [2]; 50 to 74% in test [3]; 75 to 100% in test [4]; 75 to 100% in test [5]; 75 to 100% in test [6]. Also, the inhibition at 11200 g/ha in test [7] fell in the range of 75 to 100%; in [8], 75 to 100%; in test [9], 0 to 24%; in test [10] it was 75 to 100%; in [11] it was 75 to 100%.

With `CCOC(=O)c1c(OCC)nc(C(F)(F)F)c(C(=O)OC)c1CC(C)C` [Compound 3, 3,5-pyridinedicarboxylic acid, 2-ethoxy-4-(2-methylpropyl)-6-(trifluoromethyl)-, 3-ethyl 5-methyl ester, hydrate (1:0.4)], the inhibition at 11200 g/ha in test [1] is 75 to 100%; in test [2], 75 to 100%; in test [3] it was 0 to 24%; in test [4] it was 75 to 100%; in [5], 75 to 100%; in test [6] it was 50 to 74%. The inhibition at 11200 g/ha in [7] was 50 to 74%; in [8] it was 75 to 100%; in test [9], 0 to 24%; in test [10], 0 to 24%; in test [11], 25 to 49%.

With `CN=C(SC)c1c(OC)nc(C(F)(F)F)c(C(=O)OC)c1CC(C)C` [Compound 55, 3-pyridinecarboxylic acid, 6-methoxy-5-[(methylimino)(methylthio)methyl]-4-(2-methylpropyl)-2-(trifluoromethyl)-, methyl ester], the inhibition at 11200 g/ha fell in the range of 75 to 100% in test [1]; 0 to 24% in test [2]; 0 to 24% in [3]; 75 to 100% in test [4]; 75 to 100% in test [5]; 25 to 49% in [6]. For the same compound, the inhibition at 11200 g/ha in test [7] lay in the range of 75 to 100%; in [8] it was 75 to 100%; in test [9], 0 to 24%; in test [10] it was 25 to 49%; in test [11] it was 0 to 24%.

As to `COC(=O)c1c(OC)nc(C(F)(F)F)c(C(=O)N2CCCCC2)c1CC(C)C` [Compound 67, 3-pyridinecarboxylic acid, 2-methoxy-4-(2-methylpropyl)-5-(1-piperidinylcarbonyl)-6-(trifluoromethyl)-, methyl ester], the inhibition at 11200 g/ha in test [1] was in the range of 75 to 100%; in test [2], 75 to 100%; in test [3], 0 to 24%; in [4], 75 to 100%; in test [5] it was 75 to 100%; in test [6], 75 to 100%. The inhibition at 11200 g/ha fell in the range of 75 to 100% in test [7]; 75 to 100% in test [8]; 0 to 24% in test [9]; 50 to 74% in test [10]; 0 to 24% in test [11].

As for `COC(=O)c1c(OC)nc(C(F)(F)F)c(C(=O)n2cncn2)c1CC(C)C` [Compound 60, 3-pyridinecarboxylic acid, 2-methoxy-4-(2-methylpropyl)-5-(1H-1,2,4-triazo1-1-ylcarbonyl)-6-(trifluoromethyl)-, methyl ester], the inhibition at 11200 g/ha in test [1] lay within 75 to 100%; in [2] it was 75 to 100%; in [3], 25 to 49%; in test [4], 75 to 100%; in test [5], 75 to 100%; in [6], 75 to 100%. In addition, the inhibition at 11200 g/ha is 75 to 100% in [7]; 75 to 100% in test [8]; 75 to 100% in test [9]; 75 to 100% in [10]; 0 to 24% in test [11].

On to `COc1nc(C(F)(F)F)c(C(=O)n2cccn2)c(C2CCC2)c1C(=O)n1cccn1` [Compound 59, 4-cyclobuty1-2-methoxy-3,5-bis(1H-pyrazo1-1-ylcarbonyl)-6-(trifluoromethyl)-pyridine], for which the inhibition at 11200 g/ha in [1] was in the range of 75 to 100%; in test [2], 0 to 24%; in [3], 0 to 24%; in test [4], 75 to 100%; in [5] it was 75 to 100%; in test [6], 75 to 100%. Besides, the inhibition at 11200 g/ha in [7] was in the range of 75 to 100%; in test [8] it was 75 to 100%; in test [9], 0 to 24%; in [10], 50 to 74%; in test [11], 0 to 24%.

With `COC(=O)c1c(OC)nc(C(F)(F)F)c(C2=NCC(C)S2)c1CC(C)C` (stereo not shown) [Compound 64, 3-pyridinecarboxylic acid, 5-(4,5-dihydro-5-methy1-2-thiazolyl)-2-methoxy-4-(2-methylpropyl)-6-(trifluoromethyl)-, methyl ester], the inhibition at 11200 g/ha in test [1], in test [2], in test [3], in test [4], in [5] and in test [6] was 75 to 100% in each case. Also, the inhibition at 11200 g/ha in [7] lay within 75 to 100%; in test [8], 50 to 74%; in test [9] it was 0 to 24%; in [10] it was 75 to 100%; in [11], 0 to 24%.

Consider `COC(=O)c1c(OC)nc(C(F)(F)F)c(C(=O)N2CC2C)c1CC(C)C` (stereo not shown) [Compound 72], for which the inhibition at 11200 g/ha in [1] is 75 to 100%; in [2] it was 0 to 24%; in test [3] it was 0 to 24%; in test [4] it was 75 to 100%; in test [5], 75 to 100%; in test [6], 25 to 49%. Moreover, the inhibition at 11200 g/ha is 25 to 49% in test [7]; 0 to 24% in test [8]; 0 to 24% in test [9]; 25 to 49% in [10]; 0 to 24% in test [11].

Regarding `CCOC(=O)c1c(OCC)nc(C(F)(F)F)c(C(=O)OCC)c1CC(C)C` [Compound 39, 3,5-pyridinedicarboxylic acid, 2-ethoxy-4-(2-methylpropyl)-6-(trifluoromethyl)-, diethyl ester], the inhibition at 11200 g/ha in test [1] is 75 to 100%; in test [2] it was 0 to 24%; in test [3] it was 0 to 24%; in test [4], 75 to 100%; in [5] it was 75 to 100%; in [6] it was 25 to 49%. The inhibition at 11200 g/ha in test [7] lay in the range of 75 to 100%; in [8], 0 to 24%; in [9] it was 0 to 24%; in test [10] it was 50 to 74%; in test [11], 0 to 24%.

As for `COc1nc(C(F)(F)F)c(C(=O)SC)c(C2CCC2)c1C(=O)SC` [Compound 65, 3,5 pyridinedicarbothioic acid, 4-cyclobuty1-2-methoxy-6-(trifluoromethyl)-, S,S-dimethyl ester], the inhibition at 11200 g/ha in test [1] was 75 to 100%; in test [2], 75 to 100%; in [3] it was 25 to 49%; in test [4], 75 to 100%; in test [5], 75 to 100%; in test [6], 75 to 100%. The inhibition at 11200 g/ha in test [7] fell in the range of 75 to 100%; in test [8], 50 to 74%; in test [9], 0 to 24%; in test [10] it was 75 to 100%; in test [11] it was 25 to 49%.

In the case of `COC(=O)c1c(C(F)(F)F)nc(OC)c(N=CN(C)C)c1CC(C)C` [Compound 57, 3-pyridinecarboxylic acid, 5[[(dimethylamino)methylene]amino]-6-methoxy-4-(2-methylpropyl)-2-(trifluoromethyl)-, methyl ester], the inhibition at 11200 g/ha in [1] was in the range of 75 to 100%; in test [2], 0 to 24%; in test [3] it was 0 to 24%; in test [4] it was 75 to 100%; in [5], 75 to 100%; in [6], 50 to 74%. Besides, the inhibition at 11200 g/ha in test [7] lay within 0 to 24%; in test [8] it was 75 to 100%; in test [9], 75 to 100%; in [10], 50 to 74%; in [11] it was 0 to 24%.
